Data taken from patent US20240116985A1, “STAPLED PEPTIDES AND METHODS THEREOF” (priority 2020, published 2024).
Converted amounts (≈) assume the structure as drawn. Read-outs that look alike come from different tables or passages of the source.

What was measured:
Solubility in PBS = type: physicochemical
Method in brief: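 Read-out is the HPLC peak area of the supernatant from ultracentrifuged PBS solution, scaled against a 50 μM peptide DMSO injection; value reported as [(PBS area)/(DMSO area)]*50 uM.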

[1] = target: T1, full-length beta-Catenin (Uniprot ID P35222) (Homo sapiens, UniProt P35222); test: Fluorescence polarization IC50 (beta-catenin / 5FAM-TCF4 10-53 competition); type: binding; conditions: fluorescence polarization; read-out: beta-Catenin FP IC50
T1 construct: 10 nM full-length beta-Catenin (Uniprot ID P35222)
T1 sequence (P35222 1-781): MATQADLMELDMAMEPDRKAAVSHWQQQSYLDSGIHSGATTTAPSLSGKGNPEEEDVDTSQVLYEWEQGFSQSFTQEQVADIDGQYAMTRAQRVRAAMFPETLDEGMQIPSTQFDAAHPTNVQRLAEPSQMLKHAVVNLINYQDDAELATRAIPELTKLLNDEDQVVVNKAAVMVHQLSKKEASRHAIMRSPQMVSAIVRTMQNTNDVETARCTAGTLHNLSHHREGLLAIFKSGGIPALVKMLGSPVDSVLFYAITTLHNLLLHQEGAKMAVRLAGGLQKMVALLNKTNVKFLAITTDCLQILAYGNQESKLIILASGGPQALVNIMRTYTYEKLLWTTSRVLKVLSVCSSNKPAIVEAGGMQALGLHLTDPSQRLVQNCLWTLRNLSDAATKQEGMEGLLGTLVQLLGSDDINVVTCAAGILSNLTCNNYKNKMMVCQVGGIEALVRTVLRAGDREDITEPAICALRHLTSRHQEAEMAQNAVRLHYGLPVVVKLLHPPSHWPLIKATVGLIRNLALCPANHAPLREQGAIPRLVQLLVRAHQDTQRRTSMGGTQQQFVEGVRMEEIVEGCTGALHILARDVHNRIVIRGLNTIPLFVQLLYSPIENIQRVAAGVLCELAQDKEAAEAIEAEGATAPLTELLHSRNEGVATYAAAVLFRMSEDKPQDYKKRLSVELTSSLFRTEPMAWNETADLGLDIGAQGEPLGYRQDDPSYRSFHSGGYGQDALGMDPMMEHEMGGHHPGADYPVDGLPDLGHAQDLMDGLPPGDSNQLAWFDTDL

[2] = target: T2, beta-catenin/TCF4 engagement (Homo sapiens, UniProt P35222); test: Nano-BRET target engagement assay (B-cat-Halo & TCF4-Luc in HEK293 cells); type: cell-based; conditions: absolute IC50; read-out: NanoBRET Abs IC50
T2 construct: expressed in transfected cells; host or cells: HEK293
T2 sequence (P35222 1-781): T1 sequence (P35222 1-781)

## CC(=O)N1CCC[C@]12CC=CCCCC1(CCCC=CCCCCCC[C@@](C)(C(=O)N[C@@H](Cc3ccccc3Cl)C(=O)N[C@@H](Cc3csc4ccccc34)C(=O)N[C@H](CO)[C@@H](C)O)NC(=O)[C@H]([C@@H](C)O)NC(=O)[C@H](Cc3ccccc3)NC(=O)[C@H](C)NC(=O)[C@H](C)NC(=O)[C@H](CC(=O)O)NC(=O)[C@H](CC(=O)O)NC1=O)NC(=O)[C@H](CC(C)(C)C)NC(=O)[C@H](CC(=O)O)NC2=O (stereo partly drawn) [I-1308, Ac-PL3-Asp-Npg-B5-Asp-Asp-Ala-Ala-Phe-Thr-S8-2C1F-BztA-Thro1]
Solubility in PBS; Solubility (uM)
  Solubility: 47 µM (≈ 87 µg/mL)
[1]
  IC50: 25 nM
[2]
  IC50: 11900 nM

## CC(=O)N1CCC[C@]12CC=CCCCC1(CCCC=CCCCOC(=O)N3CC[C@@](C(=O)N[C@@H](Cc4ccccc4Cl)C(=O)N[C@@H](Cc4csc5ccccc45)C(=O)N[C@H](CO)[C@@H](C)O)(C3)NC(=O)[C@H]([C@@H](C)O)NC(=O)[C@H](Cc3ccccc3)NC(=O)[C@H](C)NC(=O)[C@H](C)NC(=O)[C@H]([C@@H](C)O)NC(=O)[C@H](CC(=O)O)NC1=O)NC(=O)[C@H](CC(C)(C)C)NC(=O)[C@H](CC(=O)O)NC2=O (stereo partly drawn) [I-1309, Ac-PL3-Asp-Npg-B5-Asp-Thr-Ala-Ala-Phe-Thr-PyrS2-2C1F-BztA-Thro1]
Solubility in PBS
  Solubility: 10 µM (≈ 18.8 µg/mL)
[1]
  IC50: 59 nM
[2]
  IC50: 28600 nM

## CC(=O)N1CCC[C@]12CC=CCCCC1(CCCC=CCCCOC(=O)N3CC[C@@](C(=O)N[C@@H](Cc4ccccc4Cl)C(=O)N[C@@H](Cc4csc5ccccc45)C(=O)N[C@H](CO)[C@@H](C)O)(C3)NC(=O)[C@H]([C@@H](C)O)NC(=O)[C@H](Cc3ccccc3)NC(=O)[C@H](C)NC(=O)[C@H](C)NC(=O)[C@H]([C@@H](C)O)NC(=O)[C@H](CC(=O)O)NC1=O)NC(=O)[C@H](CC1CCCCC1)NC(=O)[C@H](CC(=O)O)NC2=O (stereo partly drawn) [I-1310, Ac-PL3-Asp-Cha-B5-Asp-Thr-Ala-Ala-Phe-Thr-PyrS2-2ClF-BztA-Thro1]
Solubility in PBS
  Solubility: 10 µM (≈ 19.1 µg/mL)
[1]
  IC50: 124 nM
[2]
  IC50: > 20000 nM

## CC(=O)N1CCC[C@]12CC=CCCCC1(CCCC=CCCCOC(=O)N3CC[C@@](C(=O)N[C@@H](Cc4ccccc4Cl)C(=O)N[C@@H](Cc4csc5ccccc45)C(=O)N[C@H](CO)[C@@H](C)O)(C3)NC(=O)[C@H](Cc3ccccc3)NC(=O)[C@H](Cc3ccccc3)NC(=O)[C@H](C)NC(=O)[C@H](C)NC(=O)[C@H](CC(=O)O)NC(=O)[C@H](CC(=O)O)NC1=O)NC(=O)[C@H](CC(C)(C)C)NC(=O)[C@H](CC(=O)O)NC2=O (stereo partly drawn) [I-1311, Ac-PL3-Asp-Npg-B5-Asp-Asp-Ala-Ala-Phe-Phe-PyrS2-2C1F-BztA-Thro1]
Solubility in PBS
  Solubility: 10 µM (≈ 19.4 µg/mL)
[1]
  IC50: 38 nM
[2]
  IC50: 20600 nM

## CC(=O)N1CCC[C@]12CC=CCCCC1(CCCC=CCCCOC(=O)N3CC[C@@](C(=O)N[C@@H](Cc4ccccc4Cl)C(=O)N[C@@H](Cc4csc5ccccc45)C(=O)N[C@H](CO)[C@@H](C)O)(C3)NC(=O)[C@H]([C@@H](C)O)NC(=O)[C@H](Cc3ccccc3)NC(=O)[C@H](C)NC(=O)[C@H](C)NC(=O)[C@H](CC(=O)O)NC(=O)[C@H](CC(=O)O)NC1=O)NC(=O)[C@H](CC1CCCCC1)NC(=O)[C@H](CC(=O)O)NC2=O (stereo partly drawn) [I-1312, Ac-PL3-Asp-Cha-B5-Asp-Asp-Ala-Ala-Phe-Thr-PyrS2-2C1F-BztA-Thro1]
Solubility in PBS; Solubility (uM)
  Solubility: 46 µM (≈ 88.3 µg/mL)
[1]
  IC50: 14 nM
[2]
  IC50: 16100 nM

## CC(=O)N1CCC[C@]12CC=CCCCC1(CCCC=CCCCOC(=O)N3CC[C@@](C(=O)N[C@@H](Cc4ccccc4C(N)=O)C(=O)N[C@@H](Cc4csc5ccccc45)C(=O)N[C@@H](CCC(N)=O)C(N)=O)(C3)NC(=O)[C@H](CC(N)=O)NC(=O)[C@H](Cc3ccccc3)NC(=O)[C@H](C)NC(=O)[C@H](C)NC(=O)[C@H](CC(=O)O)NC(=O)[C@H](CC(=O)O)NC1=O)NC(=O)[C@H](CC(C)(C)C)NC(=O)[C@H](CC(=O)O)NC2=O (stereo partly drawn) [I-1314, Ac-PL3-Asp-Npg-B5-Asp-Asp-Ala-Ala-Phe-Asn-PyrS2-2cbmF-BztA-Gln-NH2]
Solubility in PBS; Solubility (uM)
  Solubility: 48 µM (≈ 93.8 µg/mL)
[1]
  IC50: 9 nM
[2]
  IC50: > 20000 nM

## CC(=O)N1CCC[C@]12CC=CCCCC1(CCCC=CCCCOC(=O)N3CC[C@@](C(=O)N[C@@H](Cc4ccccc4C(N)=O)C(=O)N[C@@H](Cc4csc5ccccc45)C(=O)N[C@@H](CCC(N)=O)C(N)=O)(C3)NC(=O)[C@H](CC(C)C)NC(=O)[C@H](Cc3ccccc3)NC(=O)[C@H](C)NC(=O)[C@H](C)NC(=O)[C@H](CC(=O)O)NC(=O)[C@H](CC(=O)O)NC1=O)NC(=O)[C@H](CC(C)(C)C)NC(=O)[C@H](CC(=O)O)NC2=O (stereo partly drawn) [I-1315, Ac-PL3-Asp-Npg-B5-Asp-Asp-Ala-Ala-Phe-Leu-PyrS2-2cbmF-BztA-Gln-NH2]
Solubility in PBS
  Solubility: 10 µM (≈ 19.5 µg/mL)
[1]
  IC50: 13 nM
[2]
  IC50: 7200 nM

## CC(=O)N1CCC[C@]12CC=CCCCC1(CCCC=CCCCOC(=O)N3CC[C@@](C(=O)N[C@@H](Cc4ccccc4C(N)=O)C(=O)N[C@@H](Cc4csc5ccccc45)C(=O)N[C@@H](CCC(N)=O)C(N)=O)(C3)NC(=O)[C@H](Cc3ccccc3)NC(=O)[C@H](Cc3ccccc3)NC(=O)[C@H](C)NC(=O)[C@H](C)NC(=O)[C@H](CC(=O)O)NC(=O)[C@H](CC(=O)O)NC1=O)NC(=O)[C@H](CC(C)(C)C)NC(=O)[C@H](CC(=O)O)NC2=O (stereo partly drawn) [I-1316, Ac-PL3-Asp-Npg-B5-Asp-Asp-Ala-Ala-Phe-Phe-PyrS2-2cbmF-BztA-Gln-NH2]
Solubility in PBS; Solubility (uM)
  Solubility: 48 µM (≈ 95.4 µg/mL)
[1]
  IC50: 11 nM
[2]
  IC50: 6800 nM

## CC(=O)N1CCC[C@]12CC=CCCCC1(CCCC=CCCCOC(=O)N3CC[C@@](C(=O)N[C@@H](Cc4ccccc4C(F)(F)F)C(=O)N[C@@H](Cc4csc5ccccc45)C(=O)N[C@@H](CCC(N)=O)C(N)=O)(C3)NC(=O)[C@H](CC(N)=O)NC(=O)[C@H](Cc3ccccc3)NC(=O)[C@H](C)NC(=O)[C@H](C)NC(=O)[C@H](CC(=O)O)NC(=O)[C@H](CC(=O)O)NC1=O)NC(=O)[C@H](CC(C)(C)C)NC(=O)[C@H](CC(=O)O)NC2=O (stereo partly drawn) [I-1317, Ac-PL3-Asp-Npg-B5-Asp-Asp-Ala-Ala-Phe-Asn-PyrS2-2F3MeF-BztA-Gln-NH2]
Solubility in PBS; Solubility (uM)
  Solubility: 49 µM (≈ 97 µg/mL)
[1]
  IC50: 9 nM
[2]
  IC50: 9700 nM

## CC(=O)N1CCC[C@]12CC=CCCCC1(CCCC=CCCCOC(=O)N3CC[C@@](C(=O)N[C@@H](Cc4ccccc4F)C(=O)N[C@@H](Cc4csc5ccccc45)C(=O)N[C@@H](CCC(N)=O)C(N)=O)(C3)NC(=O)[C@H](CC(N)=O)NC(=O)[C@H](Cc3ccccc3)NC(=O)[C@H](C)NC(=O)[C@H](C)NC(=O)[C@H](CC(=O)O)NC(=O)[C@H](CC(=O)O)NC1=O)NC(=O)[C@H](CC(C)(C)C)NC(=O)[C@H](CC(=O)O)NC2=O (stereo partly drawn) [I-1320, Ac-PL3-Asp-Npg-B5-Asp-Asp-Ala-Ala-Phe-Asn-PyrS2-2FF-BztA-Gln-NH2]
Solubility in PBS; Solubility (uM)
  Solubility: 44 µM (≈ 84.9 µg/mL)
[1]
  IC50: 10 nM
[2]
  IC50: 26200 nM

## CC(=O)N1CCC[C@]12CC=CCCCC1(CCCC=CCCCOC(=O)N3CC[C@@](C(=O)N[C@@H](Cc4ccccc4F)C(=O)N[C@@H](Cc4csc5ccccc45)C(=O)N[C@@H](CCC(N)=O)C(N)=O)(C3)NC(=O)[C@H](CC(C)C)NC(=O)[C@H](Cc3ccccc3)NC(=O)[C@H](C)NC(=O)[C@H](C)NC(=O)[C@H](CC(=O)O)NC(=O)[C@H](CC(=O)O)NC1=O)NC(=O)[C@H](CC(C)(C)C)NC(=O)[C@H](CC(=O)O)NC2=O (stereo partly drawn) [I-1321, Ac-PL3-Asp-Npg-B5-Asp-Asp-Ala-Ala-Phe-Leu-PyrS2-2FF-BztA-Gln-NH2]
Solubility in PBS; Solubility (uM)
  Solubility: 48 µM (≈ 92.6 µg/mL)
[1]
  IC50: 8 nM
[2]
  IC50: 10900 nM

## CC(=O)N1CCC[C@]12CC=CCCCC1(CCCC=CCCCOC(=O)N3CC[C@@](C(=O)N[C@@H](Cc4ccccc4F)C(=O)N[C@@H](Cc4csc5ccccc45)C(=O)N[C@@H](CCC(N)=O)C(N)=O)(C3)NC(=O)[C@H](Cc3ccccc3)NC(=O)[C@H](Cc3ccccc3)NC(=O)[C@H](C)NC(=O)[C@H](C)NC(=O)[C@H](CC(=O)O)NC(=O)[C@H](CC(=O)O)NC1=O)NC(=O)[C@H](CC(C)(C)C)NC(=O)[C@H](CC(=O)O)NC2=O (stereo partly drawn) [I-1322, Ac-PL3-Asp-Npg-B5-Asp-Asp-Ala-Ala-Phe-Phe-PyrS2-2FF-BztA-Gln-NH2]
Solubility in PBS; Solubility (uM)
  Solubility: 33 µM (≈ 64.8 µg/mL)
[1]
  IC50: 11 nM
[2]
  IC50: 9100 nM

## CC(=O)N1CCC[C@]12CC=CCCCC1(CCCC=CCCCOC(=O)N3CC[C@@](C(=O)N[C@@H](Cc4ccccc4Br)C(=O)N[C@@H](Cc4csc5ccccc45)C(=O)N[C@@H](CCC(N)=O)C(N)=O)(C3)NC(=O)[C@H](CC(N)=O)NC(=O)[C@H](Cc3ccccc3)NC(=O)[C@H](C)NC(=O)[C@H](C)NC(=O)[C@H](CC(=O)O)NC(=O)[C@H](CC(=O)O)NC1=O)NC(=O)[C@H](CC(C)(C)C)NC(=O)[C@H](CC(=O)O)NC2=O (stereo partly drawn) [I-1323, Ac-PL3-Asp-Npg-B5-Asp-Asp-Ala-Ala-Phe-Asn-PyrS2-2BrF-BztA-Gln-NH2]
Solubility in PBS; Solubility (uM)
  Solubility: 48 µM (≈ 95.6 µg/mL)
[1]
  IC50: 6 nM
[2]
  IC50: 11700 nM
